Data on 6 compounds can be found in PubChem BioAssay AID1745844 (Carcinogenic Potency Database (CPDB), 2022).

Active and inactive are the calls of the source. The rule behind the calls is not given here.

The data set concerns rodent lifetime carcinogenesis bioassay, tumor incidence TD50. Description: chronic cancer bioassays in animals – CPDB, compiled studies (AID 1745844).

In general, TD50 refers to the dose at which the toxic effect under study appears in half of the subjects.

`Nc1ccc(-c2ccc(N)c(Cl)c2)cc1Cl`: the carcinogen call reads like this: (dog, strain Beagle, females, given by capsule, site: liver, lesion: several types, types named in the paper, dosed 369 weeks, study length 370 weeks) “positive”; (dog, strain Beagle, females, given by capsule, site: urinary bladder, lesion: several types, types named in the paper, dosed 369 weeks, study length 370 weeks) “positive”; (mouse, strain ICR/Jcl, males, in feed, site: liver, lesion: hepatoma, dosed 52 weeks, study length 52 weeks) “positive”; (rat, strain Charles River CD (Sprague-Dawley), females, in feed, site: liver, lesion: one or several types, types not named, dosed 69 weeks, study length 69 weeks) “negative (inactive)”; (rat, strain Charles River CD (Sprague-Dawley), males, in feed, site: liver, lesion: one or several types, types not named, dosed 69 weeks, study length 69 weeks) “negative (inactive)”. For the same compound, the TD50 reads like this: (rat, strain Charles River CD (Sprague-Dawley), females, in feed, site: mammary gland, lesion: adenocarcinoma, dosed 69 weeks, study length 69 weeks) 18.3 mg/kg/day; (rat, strain Charles River CD (Sprague-Dawley), males, in feed, site: Zymbal's gland, lesion: squamous-cell carcinoma, dosed 69 weeks, study length 69 weeks) 60.1 mg/kg/day; (rat, strain Charles River CD (Sprague-Dawley), males, in feed, site: all sites, lesion: granulocytic leukemia, dosed 69 weeks, study length 69 weeks) 66.2 mg/kg/day; (rat, strain Charles River CD (Sprague-Dawley), males, in feed, site: mammary gland, lesion: adenocarcinoma, dosed 69 weeks, study length 69 weeks) 69.6 mg/kg/day.
As to `CC1=C(C(=O)OC(C)C)C(c2cccc([N+](=O)[O-])c2)C(C(=O)OC2CN(C(c3ccccc3)c3ccccc3)C2)=C(N)N1` (configuration not stated), the carcinogen call is “negative (inactive)” (mouse, strain B6C3F1, females, by gavage, site: any site (literature study), lesion: several types, types named in the paper, dosed 78 weeks, study length 78 weeks); “negative (inactive)” (mouse, strain B6C3F1, females, by gavage, site: liver, lesion: hepatocellular adenoma, dosed 78 weeks, study length 78 weeks); “negative (inactive)” (mouse, strain B6C3F1, females, by gavage, site: liver, lesion: hepatocellular carcinoma, dosed 78 weeks, study length 78 weeks); “negative (inactive)” (mouse, strain B6C3F1, females, by gavage, site: lung, lesion: alveolar/bronchiolar carcinoma, dosed 78 weeks, study length 78 weeks); “negative (inactive)” (mouse, strain B6C3F1, males, by gavage, site: liver, lesion: hepatocellular adenoma, dosed 78 weeks, study length 78 weeks); “negative (inactive)” (mouse, strain B6C3F1, males, by gavage, site: liver, lesion: hepatocellular carcinoma, dosed 78 weeks, study length 78 weeks). Also, the carcinogen call is, setting by setting: (rat, strain F344/DuCrj, females, by gavage, site: any site (literature study), lesion: several types, types named in the paper, dosed 104 weeks, study length 104 weeks) “negative (inactive)”; (rat, strain F344/DuCrj, females, by gavage, site: liver, lesion: hepatocellular adenoma, dosed 104 weeks, study length 104 weeks) “negative (inactive)”; (rat, strain F344/DuCrj, females, by gavage, site: liver, lesion: hepatocellular carcinoma, dosed 104 weeks, study length 104 weeks) “negative (inactive)”; (rat, strain F344/DuCrj, males, by gavage, site: any site (literature study), lesion: several types, types named in the paper, dosed 104 weeks, study length 104 weeks) “negative (inactive)”. The TD50 is 217 mg/kg/day (inactive) (mouse, strain B6C3F1, females, by gavage, site: lung, lesion: alveolar/bronchiolar adenoma, dosed 78 weeks, study length 78 weeks); 83.5 mg/kg/day (inactive) (mouse, strain B6C3F1, males, by gavage, site: any site (literature study), lesion: several types, types named in the paper, dosed 78 weeks, study length 78 weeks); 65 mg/kg/day (inactive) (mouse, strain B6C3F1, males, by gavage, site: lung, lesion: alveolar/bronchiolar adenoma, dosed 78 weeks, study length 78 weeks); 227 mg/kg/day (inactive) (mouse, strain B6C3F1, males, by gavage, site: lung, lesion: alveolar/bronchiolar carcinoma, dosed 78 weeks, study length 78 weeks); 117 mg/kg/day (inactive) (rat, strain F344/DuCrj, males, by gavage, site: liver, lesion: hepatocellular adenoma, dosed 104 weeks, study length 104 weeks); 237 mg/kg/day (inactive) (rat, strain F344/DuCrj, males, by gavage, site: liver, lesion: hepatocellular carcinoma, dosed 104 weeks, study length 104 weeks).
As for `CCCC[N+](=O)[O-]`, the carcinogen call (rat, strain Fischer 344, males, by gavage, site: liver, lesion: one or several types, types not named, dosed 50 weeks, study length 83 weeks) was “negative (inactive)”.
Regarding `Cc1c(N(C)C)c(=O)n(-c2ccccc2)n1C`, the carcinogen call runs as follows: (mouse, strain B6C3F1, females, in drinking water, site: any site (literature study), lesion: one or several types, types not named, dosed 100 weeks, study length 104 weeks) “negative (inactive)”; (mouse, strain B6C3F1, females, in drinking water, site: liver, lesion: hepatocellular carcinoma, dosed 100 weeks, study length 104 weeks) “negative (inactive)”; (mouse, strain B6C3F1, females, in drinking water, site: lung, lesion: alveolar/bronchiolar adenoma, dosed 100 weeks, study length 104 weeks) “negative (inactive)”; (mouse, strain B6C3F1, males, in drinking water, site: lung, lesion: alveolar/bronchiolar carcinoma, dosed 100 weeks, study length 104 weeks) “negative (inactive)”. Moreover, the TD50 reads like this: (mouse, strain B6C3F1, females, in drinking water, site: liver, lesion: hepatocellular adenoma, dosed 100 weeks, study length 104 weeks) 6150 mg/kg/day (inactive); (mouse, strain B6C3F1, females, in drinking water, site: lung, lesion: alveolar/bronchiolar carcinoma, dosed 100 weeks, study length 104 weeks) 6540 mg/kg/day (inactive); (mouse, strain B6C3F1, males, in drinking water, site: any site (literature study), lesion: one or several types, types not named, dosed 100 weeks, study length 104 weeks) 156 mg/kg/day (inactive); (mouse, strain B6C3F1, males, in drinking water, site: liver, lesion: hepatocellular adenoma, dosed 100 weeks, study length 104 weeks) 683 mg/kg/day (inactive); (mouse, strain B6C3F1, males, in drinking water, site: liver, lesion: hepatocellular carcinoma, dosed 100 weeks, study length 104 weeks) 5390 mg/kg/day (inactive); (mouse, strain B6C3F1, males, in drinking water, site: lung, lesion: alveolar/bronchiolar adenoma, dosed 100 weeks, study length 104 weeks) 1480 mg/kg/day (inactive).
Take `N[C@@H](CCC(=O)NNc1ccc(CO)cc1)C(=O)O`: the TD50 by setting is: (mouse, strain Swiss albino, females, in drinking water, site: liver, lesion: angiosarcoma, dosed 121 weeks, study length 121 weeks) 2720 mg/kg/day; (mouse, strain Swiss albino, females, in drinking water, site: lung, lesion: adenoma, dosed 121 weeks, study length 121 weeks) 3290 mg/kg/day; (mouse, strain Swiss albino, males, in drinking water, site: liver, lesion: angiosarcoma, dosed 120 weeks, study length 120 weeks) 2040 mg/kg/day; (mouse, strain Swiss albino, males, in drinking water, site: liver, lesion: hepatoma, dosed 120 weeks, study length 120 weeks) 3310 mg/kg/day (inactive). Further, the carcinogen call is “negative (inactive)” (mouse, strain Swiss albino, females, in drinking water, site: lung, lesion: several types, types named in the paper, dosed 121 weeks, study length 121 weeks) and “negative (inactive)” (mouse, strain Swiss albino, males, in drinking water, site: lung, lesion: several types, types named in the paper, dosed 120 weeks, study length 120 weeks).
`O=P(OC(CCl)CCl)(OC(CCl)CCl)OC(CCl)CCl`: the TD50 by setting is: (rat, strain Charles River CD (Sprague-Dawley), females, in feed, site: adrenal gland, lesion: cortical adenoma, dosed 104 weeks, study length 104 weeks) 192 mg/kg/day; (rat, strain Charles River CD (Sprague-Dawley), females, in feed, site: kidney, lesion: cortical adenoma, dosed 104 weeks, study length 104 weeks) 68.6 mg/kg/day; (rat, strain Charles River CD (Sprague-Dawley), females, in feed, site: liver, lesion: hepatocellular adenoma, dosed 104 weeks, study length 104 weeks) 324 mg/kg/day; (rat, strain Charles River CD (Sprague-Dawley), females, in feed, site: liver, lesion: hepatocellular carcinoma, dosed 104 weeks, study length 104 weeks) 721 mg/kg/day; (rat, strain Charles River CD (Sprague-Dawley), females, in feed, site: liver, lesion: several types, types named in the paper, dosed 104 weeks, study length 104 weeks) 206 mg/kg/day; (rat, strain Charles River CD (Sprague-Dawley), males, in feed, site: kidney, lesion: cortical adenoma, dosed 104 weeks, study length 104 weeks) 53.1 mg/kg/day. In addition, the TD50 by setting is: (rat, strain Charles River CD (Sprague-Dawley), males, in feed, site: liver, lesion: hepatocellular adenoma, dosed 104 weeks, study length 104 weeks) 252 mg/kg/day; (rat, strain Charles River CD (Sprague-Dawley), males, in feed, site: liver, lesion: hepatocellular carcinoma, dosed 104 weeks, study length 104 weeks) 390 mg/kg/day; (rat, strain Charles River CD (Sprague-Dawley), males, in feed, site: liver, lesion: several types, types named in the paper, dosed 104 weeks, study length 104 weeks) 144 mg/kg/day; (rat, strain Charles River CD (Sprague-Dawley), males, in feed, site: testis, lesion: interstitial-cell tumor, dosed 104 weeks, study length 104 weeks) 35 mg/kg/day.
